Measured values taken from US12428427B2, “Methods and compositions for targeting PD-L1” (Aligos Therapeutics, Inc., priority 2021, dated 2025).

Tests used:
PD-1/PD-L1 interaction = biological target: T1, PD-1/PD-L1 interaction (Homo sapiens, UniProt Q9NZQ7); test: PD-1/PD-L1 NFAT Reporter Assay; assay type: cell-based; conditions: co-culture of PD-L1 expressing CHO cells and PD-1 overexpressing Jurkat cells, 6 hrs, NFAT luciferase
T1 construct: expressed in transfected cells; Jurkat cells (PD-1 plus NFAT-luciferase)
T1 sequence (Q9NZQ7 19-290): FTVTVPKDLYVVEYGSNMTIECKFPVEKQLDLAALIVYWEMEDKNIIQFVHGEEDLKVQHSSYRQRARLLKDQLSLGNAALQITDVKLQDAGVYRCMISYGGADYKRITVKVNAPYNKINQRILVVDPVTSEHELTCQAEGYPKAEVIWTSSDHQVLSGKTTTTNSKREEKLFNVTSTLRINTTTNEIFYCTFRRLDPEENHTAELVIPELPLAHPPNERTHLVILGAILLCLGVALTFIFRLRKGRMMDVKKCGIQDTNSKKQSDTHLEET
Method: Blocking the PD-1/PD-L1 interaction will release the inhibitory signal and results in TCR signaling and NFAT-mediated luciferase activity.
CHO cells expressing surface-bound anti-CD3 antibodies and PD-L1 were first seeded overnight and treated with the compounds. Jurkat cells overexpressing PD-1 and a luciferase construct under NFAT promoter were then immediately seeded on the monolayer of CHO cells. The co-culture was then incubated for 6 hrs at 37° C. Luciferase activity was assessed by adding the ONE-Glo reagent and measuring luminescence with a plate reader. EC50 values were determined from the fit of the dose-response curves.

PDL1/PD1 = PDL1/PD1 (Homo sapiens, UniProt Q9NZQ7); test: PDL1/PD1 Binding Assay; conditions: PDL1-6×His 0.3 nM, PD1-Fc-Avi-Biotin 2.5 nM, Acceptor/Donor beads; read-out: PD-1/PD-L1 PPI IC50
Sequence of PDL1/PD1 (Q9NZQ7 19-238 limits assumed): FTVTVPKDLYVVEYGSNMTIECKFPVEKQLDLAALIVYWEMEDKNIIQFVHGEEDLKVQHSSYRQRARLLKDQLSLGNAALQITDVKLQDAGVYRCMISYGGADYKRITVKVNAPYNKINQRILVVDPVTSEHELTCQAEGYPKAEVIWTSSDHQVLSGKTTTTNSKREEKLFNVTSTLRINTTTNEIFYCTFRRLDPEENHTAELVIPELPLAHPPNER
Method: Compounds to be tested were serially diluted in DMSO, and further diluted in assay buffer (25 mM Hepes pH 7.4, 150 mM NaCl, 0.005% Tween 20, BSA 0.01%). Diluted compounds were added to the wells with final concentration of DMSO at 1%. PDL1-6×His protein was added to the wells, mixed well with compound. The plates were incubated for 30 min at room temperature. PD1-Fc-Avi-Biotin protein was added to the wells. Final concentration of PDL1 and PD1 protein is 0.3 nM and 2.5 nM, respectively. After a binding time of 30 min at room temperature, Anti-6×His Acceptor beads (final concentration 20 ug/ml) were added to the wells, and the incubation continued for 1 h. Streptavidin Donor beads (final concentration 20 ug/mL) were added at reduced light. The plates were sealed with foil and incubated in the dark for additional 1 h or overnight before reading on an Envision reader. The IC50 values were determined by fitting the curves using a four-parameter equation in Graphpad Prism 8.

| SMILES | EC50 (PD-1/PD-L1 interaction) | IC50 (PDL1/PD1) |
| --- | --- | --- |
| COc1nc(-c2cccc(-c3cccc(NC(=O)c4ccnn(C)c4=O)c3C)c2Cl)cnc1CNC[C@@H]1CCC(=O)N1 [Compound B-5] | 100 to 1000 nM | ≤ 10 nM |
| COc1nc(-c2cccc(-c3cccc(NC(=O)c4cc(C)n[nH]c4=O)c3Cl)c2Cl)cnc1CN1CC2(CCC(=O)N2)C1 [Compound A-4] | 100 to 1000 nM | ≤ 10 nM |
| CCOC(=O)CCN(Cc1ccc(-c2cccc(-c3cccc(NC(=O)c4ccnn(C)c4=O)c3Cl)c2Cl)nc1OC)C(=O)OCc1oc(=O)oc1C [Compound F-1] | 100 to 1000 nM |  |
| COc1nc(-c2cccc(-c3cccc(NC(=O)c4ccnn(C)c4=O)c3Cl)c2Cl)ccc1CN1CCCC[C@@H]1C(=O)O [Compound C-11] | 100 to 1000 nM | ≤ 10 nM |
| COc1nc(-c2cccc(-c3cccc(NC(=O)c4ccnn(C)c4=O)c3Cl)c2Cl)ccc1CN[C@H](C(=O)O)C(C)C [Compound C-28] | 100 to 1000 nM | ≤ 10 nM |
| COc1nc(-c2cccc(-c3cccc(NC(=O)c4ccnn(C)c4=O)c3Cl)c2Cl)ccc1CN1CC2(C(=O)O)CCC1CC2 [Compound C-27] | 100 to 1000 nM | ≤ 10 nM |
| COc1nc(-c2cccc(-c3cccc(NC(=O)c4ccnn(C)c4=O)c3Cl)c2Cl)ccc1CN1CCCC[C@H]1C(=O)O [Compound C-10] | 100 to 1000 nM | ≤ 10 nM |
| COC(=O)C1CN(Cc2cc(F)c(-c3cccc(-c4cccc(NC(=O)c5ccnn(C)c5=O)c4Cl)c3Cl)nc2OC)C1 [Compound C-78] | 100 to 1000 nM | ≤ 10 nM |
| COc1nc(-c2cccc(-c3cccc(NC(=O)c4ccnn(C)c4=O)c3C)c2C)ccc1CN1C[C@@H](O)[C@@H]1C [Compound C-74] | > 5000 nM |  |
| CCOC(=O)N(Cc1ncc(-c2cccc(-c3cccc(NC(=O)c4ccnn(C)c4=O)c3C)c2Cl)nc1OC)C[C@@H]1CCC(=O)N1 [Compound D-2] | > 5000 nM | 10 to 100 nM |
| COc1nc(-c2cccc(-c3cccc(NC(=O)c4ccnn(C)c4=O)c3C)c2C)ccc1CNC(C)(C)CO [Compound C-73] | > 5000 nM | ≤ 10 nM |
| COc1nc(-c2cccc(-c3cccc(NC(=O)c4ccnn(C)c4=O)c3Cl)c2Cl)ccc1CN1CC(C(=O)NS(C)(=O)=O)C1 [Compound C-46] | 10 to 100 nM |  |
| COc1nc(-c2cccc(-c3cccc(NC(=O)c4ccnn(C)c4=O)c3C)c2Cl)ccc1CN1CC(F)(C(=O)O)C1 [Compound C-62] | 100 to 1000 nM |  |
| COc1nc(-c2cccc(-c3cccc(NC(=O)c4ccnn(C)c4=O)c3C)c2Cl)ccc1CN[C@@H]1CCOC[C@@H]1O [Compound C-52] | > 5000 nM |  |
| COc1nc(-c2cccc(-c3cccc(NC(=O)c4ccnn(C)c4=O)c3Cl)c2Cl)ccc1CN[C@@H]1CN(C(C)=O)C[C@@H]1O [Compound C-45] | 10 to 100 nM |  |
| CCOC(=O)C1(C)CN(Cc2ccc(-c3cccc(-c4cccc(NC(=O)c5ccnn(C)c5=O)c4C)c3Cl)nc2OC)C1 [Compound C-59] |  | ≤ 10 nM |
| COc1nc(-c2cccc(-c3cccc(NC(=O)c4ccnn(C)c4=O)c3Cl)c2Cl)cnc1CN[C@@H]1CCOC[C@@H]1O [Compound C-83] | 10 to 100 nM |  |
| CCOC(=O)CCNCc1ccc(-c2cccc(-c3cccc(NC(=O)c4ccnn(C)c4=O)c3Cl)c2Cl)nc1OC [Compound C-94] | 10 to 100 nM |  |
| COc1nc(-c2cccc(-c3cccc(NC(=O)c4ccnn(C)c4=O)c3Cl)c2Cl)ccc1CNCCC(=O)O [Compound C-93] | 10 to 100 nM |  |
| COc1nc(-c2cccc(-c3cccc(NC(=O)c4ccnn(C)c4=O)c3Cl)c2Cl)cnc1CN1CC(O)C1 [Compound C-84] | 10 to 100 nM |  |
| CCOC(=O)[C@@H]1CN(Cc2ccc(-c3cccc(-c4cccc(NC(=O)c5ccnn(C)c5=O)c4Cl)c3Cl)nc2OC)C(=O)O1 [Compound H-1] | > 5000 nM |  |

Further lines, results first:

| EC50 (PD-1/PD-L1 interaction) | IC50 (PDL1/PD1) | SMILES |
| --- | --- | --- |
| 10 to 100 nM | ≤ 10 nM | COc1nc(-c2cccc(-c3cccc(NC(=O)c4ccnn(C)c4=O)c3Cl)c2Cl)ncc1CN1CC(O)C1 [Compound C-82] |
| 10 to 100 nM | ≤ 10 nM | COc1nc(-c2cccc(-c3cccc(NC(=O)c4ccnn(C)c4=O)c3Cl)c2Cl)ccc1CNC[C@H](O)C(=O)O [Compound C-38] |
| 10 to 100 nM | ≤ 10 nM | COc1nc(-c2cccc(-c3cccc(NC(=O)c4ccnn(C)c4=O)c3Cl)c2Cl)ccc1CNC[C@@H]1CCC(=O)N1 [Compound B-2] |
| ≤ 10 nM | ≤ 10 nM | COc1nc(-c2cccc(-c3cccc(NC(=O)c4ccnn(C)c4=O)c3Cl)c2Cl)c(F)cc1CN[C@@H]1CCOC[C@@H]1O [Compound C-75] |
| 10 to 100 nM | ≤ 10 nM | COc1nc(-c2cccc(-c3cccc(NC(=O)c4ccnn(C)c4=O)c3Cl)c2Cl)cnc1CNC[C@@H]1CCC(=O)N1 [Compound B-1] |
| ≤ 10 nM | ≤ 10 nM | COc1nc(-c2cccc(-c3cccc(NC(=O)c4ccnn(C)c4=O)c3C)c2Cl)ccc1CN1CC[C@H](O)C1 [Compound C-65] |
| 10 to 100 nM | ≤ 10 nM | COc1nc(-c2cccc(-c3cccc(NC(=O)c4ccnn(C)c4=O)c3Cl)c2Cl)ccc1CN[C@](C)(CO)C(=O)O [Compound C-12] |
| 10 to 100 nM | ≤ 10 nM | COc1nc(-c2cccc(-c3cccc(NC(=O)c4ccnn(C)c4=O)c3Cl)c2Cl)ccc1CNC[C@H](C)C(=O)O [Compound C-36] |
| 10 to 100 nM | ≤ 10 nM | CCOC(=O)[C@H]1CCN(Cc2ccc(-c3cccc(-c4cccc(NC(=O)c5ccnn(C)c5=O)c4C)c3Cl)nc2OC)C1 [Compound C-55] |
| ≤ 10 nM |  | COc1nc(-c2cccc(-c3cccc(NC(=O)c4ccnn(C)c4=O)c3Cl)c2Cl)cnc1CN1CC[C@H](O)C1 [Compound C-85] |
| 10 to 100 nM | ≤ 10 nM | COc1nc(-c2cccc(-c3cccc(NC(=O)c4ccnn(C)c4=O)c3Cl)c2Cl)ccc1CNCCO [Compound C-2] |
| 10 to 100 nM | ≤ 10 nM | COc1nc(-c2cccc(-c3cccc(NC(=O)c4ccnn(C)c4=O)c3Cl)c2Cl)ccc1CNC1CC1 [Compound C-6] |
| 10 to 100 nM | ≤ 10 nM | COc1nc(-c2cccc(-c3cccc(NC(=O)c4ccnn(C)c4=O)c3Cl)c2Cl)cc(C)c1CN1CC(C(=O)O)C1 [Compound C-88] |
| 10 to 100 nM | ≤ 10 nM | COc1nc(-c2cccc(-c3cccc(NC(=O)c4ccnn(C)c4=O)c3C)c2Cl)ccc1CN1CC(C(=O)O)C1 [Compound C-54] |
| 10 to 100 nM | ≤ 10 nM | COc1nc(-c2cccc(-c3cccc(NC(=O)c4ccnn(C)c4=O)c3Cl)c2Cl)ccc1CN1C[C@H](C(=O)O)C(C)(C)C1 [Compound C-31] |
| 10 to 100 nM | ≤ 10 nM | COc1nc(-c2cccc(-c3cccc(NC(=O)c4ccnn(C)c4=O)c3C)c2Cl)ccc1CN1CC[C@H](C(=O)O)C1 [Compound C-56] |
| ≤ 10 nM | ≤ 10 nM | COc1nc(-c2cccc(-c3cccc(NC(=O)c4ccnn(C)c4=O)c3C)c2Cl)cnc1CN1CC[C@H](O)C1 [Compound C-87] |
| 10 to 100 nM | ≤ 10 nM | COc1nc(-c2cccc(-c3cccc(NC(=O)c4ccnn(C)c4=O)c3Cl)c2Cl)ccc1CN[C@@H](C)C(=O)O [Compound C-29] |
| 10 to 100 nM |  | CCOC(=O)[C@@H](O)CNCc1ccc(-c2cccc(-c3cccc(NC(=O)c4ccnn(C)c4=O)c3Cl)c2Cl)nc1OC [Compound G-1] |
| ≤ 10 nM |  | COc1nc(-c2cccc(-c3cccc(NC(=O)c4ccnn(C)c4=O)c3C)c2Cl)cnc1CN1CC(O)C1 [Compound C-86] |
| ≤ 10 nM |  | COc1nc(-c2cccc(-c3cccc(NC(=O)c4ccnn(C)c4=O)c3C)c2C)ccc1CN[C@@H]1CCOC[C@@H]1O [Compound C-71] |
